Laboratory results taken from the supplement of paper PMC11451515.

Assays:
Conditions in all cases: 48 h
NOMO1 [1] = assay: cell viability relative to DMSO control; higher = less cytotoxic
Summary of the method: (§1)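 Viability is expressed as a percentage of DMSO wells within each plate, and cell-free wells serve as background. Seeding densities in the 1536-well plates (5 μl) were 500 cells/well for NOMO1 or SEM leukemia cells and 1000 cells/well for P12-Ichikawa. Each line was adapted for at least four passages in each medium. Library compounds in DMSO were pin-dosed at 47 μM to 0.79 nM (11 points, threefold), and CellTiter-Glo One luminescence was read after 48 h at 37°C.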

SEM cells [2] = assay: as above
Summary of the method: as §1

P12-Ichikawa [3] = assay: as above
Summary of the method: as §1

NOMO1 [4] = assay: AUC of viability dose-response curve (% viability x log10 dose units); higher = less sensitive
Summary of the method: (§2)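 In 1536-well plates, leukemia cells adapted to each medium (500 or 1000 cells/well) were exposed for 48 h at 37°C to library compounds in DMSO across 11 threefold doses, 47 μM down to 0.79 nM. Viability was read by CellTiter-Glo One luminescence and normalised per plate to DMSO and cell-free wells. A four-parameter log-logistic fit over log10 doses was integrated by trapezoidal rule. This yielded the area under the curve, with over-full-viability curves scaled and quality-control failures dropped.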

SEM cells [5] = assay: as above
Summary of the method: as §2

P12-Ichikawa [6] = assay: as above
Summary of the method: as §2

O=C(O)Cc1cccc(OCCCN(Cc2cccc(C(F)(F)F)c2Cl)CC(c2ccccc2)c2ccccc2)c1
cell viability [%]
Conditions	NOMO1 [1]	P12-Ichikawa [3]	SEM cells [2]
HPLM + 10% dialyzed FBS, 0.000781 µM	122	117	109
HPLM + 10% dialyzed FBS, 0.00234 µM	123	115	118
HPLM + 10% dialyzed FBS, 0.00702 µM	136	116	109
HPLM + 10% dialyzed FBS, 0.0211 µM	110	121	97.8
HPLM + 10% dialyzed FBS, 0.0632 µM	114	119	113
HPLM + 10% dialyzed FBS, 0.19 µM	108	115	102
HPLM + 10% dialyzed FBS, 0.569 µM	118	116	110
HPLM + 10% dialyzed FBS, 1.71 µM	99.3	108	100
HPLM + 10% dialyzed FBS, 5.12 µM	106	108	93.5
HPLM + 10% dialyzed FBS, 15.4 µM	118	102	103
HPLM + 10% dialyzed FBS, 46.1 µM	114	108	94.5
RPMI 5 mM glucose + 10% FBS, 0.000781 µM	–	–	98.3
RPMI 5 mM glucose + 10% FBS, 0.00234 µM	–	–	93.6
RPMI 5 mM glucose + 10% FBS, 0.00702 µM	–	–	95.1
RPMI 5 mM glucose + 10% FBS, 0.0211 µM	–	–	101
RPMI 5 mM glucose + 10% FBS, 0.0632 µM	–	–	86.3
RPMI 5 mM glucose + 10% FBS, 0.19 µM	–	–	84.5
RPMI 5 mM glucose + 10% FBS, 0.569 µM	–	–	92
RPMI 5 mM glucose + 10% FBS, 1.71 µM	–	–	89.5
RPMI 5 mM glucose + 10% FBS, 5.12 µM	–	–	87.3
RPMI 5 mM glucose + 10% FBS, 15.4 µM	–	–	84.8
RPMI 5 mM glucose + 10% FBS, 46.1 µM	–	–	96.4
RPMI 5 mM glucose + 10% dialyzed FBS, 0.000781 µM	–	119	111
RPMI 5 mM glucose + 10% dialyzed FBS, 0.00234 µM	–	119	111
RPMI 5 mM glucose + 10% dialyzed FBS, 0.00702 µM	–	119	109
RPMI 5 mM glucose + 10% dialyzed FBS, 0.0211 µM	–	124	135
RPMI 5 mM glucose + 10% dialyzed FBS, 0.0632 µM	–	124	119
RPMI 5 mM glucose + 10% dialyzed FBS, 0.19 µM	–	122	113
RPMI 5 mM glucose + 10% dialyzed FBS, 0.569 µM	–	118	126
RPMI 5 mM glucose + 10% dialyzed FBS, 1.71 µM	–	101	103
RPMI 5 mM glucose + 10% dialyzed FBS, 5.12 µM	–	108	96.1
RPMI 5 mM glucose + 10% dialyzed FBS, 15.4 µM	–	98.8	99.2
RPMI 5 mM glucose + 10% dialyzed FBS, 46.1 µM	–	103	111

AUC of viability dose-response curve
Conditions	NOMO1 [4]	P12-Ichikawa [6]	SEM cells [5]
HPLM + 10% dialyzed FBS	432	460	444
RPMI 5 mM glucose + 10% FBS	461	442	437
RPMI 5 mM glucose + 10% dialyzed FBS	465	450	456

CN(C)CCOc1ccc(/C(=C(/CCCl)c2ccccc2)c2ccccc2)cc1
cell viability [%]
Conditions	NOMO1 [1]	P12-Ichikawa [3]	SEM cells [2]
HPLM + 10% dialyzed FBS, 0.000781 µM	105	102	54.7
HPLM + 10% dialyzed FBS, 0.00234 µM	116	110	92.8
HPLM + 10% dialyzed FBS, 0.00702 µM	98	107	85.2
HPLM + 10% dialyzed FBS, 0.0211 µM	94.7	107	94.2
HPLM + 10% dialyzed FBS, 0.0632 µM	104	106	108
HPLM + 10% dialyzed FBS, 0.19 µM	126	112	85.6
HPLM + 10% dialyzed FBS, 0.569 µM	100	111	88
HPLM + 10% dialyzed FBS, 1.71 µM	115	88.6	94.6
HPLM + 10% dialyzed FBS, 5.12 µM	95.5	67.2	58.5
HPLM + 10% dialyzed FBS, 15.4 µM	68.5	59.1	34
HPLM + 10% dialyzed FBS, 46.1 µM	42.2	34.9	16.5
RPMI 5 mM glucose + 10% FBS, 0.000781 µM	106	108	54.5
RPMI 5 mM glucose + 10% FBS, 0.00234 µM	104	109	100
RPMI 5 mM glucose + 10% FBS, 0.00702 µM	111	112	74.7
RPMI 5 mM glucose + 10% FBS, 0.0211 µM	109	108	96.7
RPMI 5 mM glucose + 10% FBS, 0.0632 µM	103	109	98.4
RPMI 5 mM glucose + 10% FBS, 0.19 µM	94.2	102	99.5
RPMI 5 mM glucose + 10% FBS, 0.569 µM	115	103	100
RPMI 5 mM glucose + 10% FBS, 1.71 µM	105	83.1	74.8
RPMI 5 mM glucose + 10% FBS, 5.12 µM	99.1	57.9	39.5
RPMI 5 mM glucose + 10% FBS, 15.4 µM	57.3	50.5	22.1
RPMI 5 mM glucose + 10% FBS, 46.1 µM	39.6	32.2	11.9
RPMI 5 mM glucose + 10% dialyzed FBS, 0.000781 µM	93.4	102	45.9
RPMI 5 mM glucose + 10% dialyzed FBS, 0.00234 µM	110	107	96.8
RPMI 5 mM glucose + 10% dialyzed FBS, 0.00702 µM	113	112	83.6
RPMI 5 mM glucose + 10% dialyzed FBS, 0.0211 µM	116	111	102
RPMI 5 mM glucose + 10% dialyzed FBS, 0.0632 µM	108	109	117
RPMI 5 mM glucose + 10% dialyzed FBS, 0.19 µM	125	102	97.5
RPMI 5 mM glucose + 10% dialyzed FBS, 0.569 µM	108	112	85.8
RPMI 5 mM glucose + 10% dialyzed FBS, 1.71 µM	120	80.3	85.2
RPMI 5 mM glucose + 10% dialyzed FBS, 5.12 µM	107	58.1	57.6
RPMI 5 mM glucose + 10% dialyzed FBS, 15.4 µM	76.9	44.1	36.1
RPMI 5 mM glucose + 10% dialyzed FBS, 46.1 µM	50.6	42.7	22.6

AUC of viability dose-response curve
Conditions	NOMO1 [4]	P12-Ichikawa [6]	SEM cells [5]
HPLM + 10% dialyzed FBS	441	410	362
RPMI 5 mM glucose + 10% FBS	437	393	344
RPMI 5 mM glucose + 10% dialyzed FBS	448	399	369

Nc1nc(N)c(N=O)c(OCC2CCCCC2)n1
cell viability [%]
Conditions	NOMO1 [1]	P12-Ichikawa [3]	SEM cells [2]
HPLM + 10% dialyzed FBS, 0.000781 µM	89.8	89.4	71.5
HPLM + 10% dialyzed FBS, 0.00234 µM	104	90.3	92.1
HPLM + 10% dialyzed FBS, 0.00702 µM	90.2	88.9	54.6
HPLM + 10% dialyzed FBS, 0.0211 µM	116	90.6	88.7
HPLM + 10% dialyzed FBS, 0.0632 µM	94.5	97.6	91.9
HPLM + 10% dialyzed FBS, 0.19 µM	99	92.2	100
HPLM + 10% dialyzed FBS, 0.569 µM	99.5	88.3	89.4
HPLM + 10% dialyzed FBS, 1.71 µM	62.5	81.1	75.5
HPLM + 10% dialyzed FBS, 5.12 µM	46.9	75.6	40.8
HPLM + 10% dialyzed FBS, 15.4 µM	38.9	60.6	39
HPLM + 10% dialyzed FBS, 46.1 µM	23.4	40.1	28.2
RPMI 5 mM glucose + 10% FBS, 0.000781 µM	90.3	86	94.7
RPMI 5 mM glucose + 10% FBS, 0.00234 µM	90.2	87.3	84.2
RPMI 5 mM glucose + 10% FBS, 0.00702 µM	93	86.9	56.6
RPMI 5 mM glucose + 10% FBS, 0.0211 µM	93.5	93	91.4
RPMI 5 mM glucose + 10% FBS, 0.0632 µM	87.9	98.2	97.2
RPMI 5 mM glucose + 10% FBS, 0.19 µM	94	95.3	93.3
RPMI 5 mM glucose + 10% FBS, 0.569 µM	91.8	84.6	96.7
RPMI 5 mM glucose + 10% FBS, 1.71 µM	76.9	78.7	74
RPMI 5 mM glucose + 10% FBS, 5.12 µM	61.6	53.8	47.8
RPMI 5 mM glucose + 10% FBS, 15.4 µM	48	45	38.1
RPMI 5 mM glucose + 10% FBS, 46.1 µM	28.2	34.7	27.4
RPMI 5 mM glucose + 10% dialyzed FBS, 0.000781 µM	76.6	84.8	81.6
RPMI 5 mM glucose + 10% dialyzed FBS, 0.00234 µM	91.8	89.2	86.2
RPMI 5 mM glucose + 10% dialyzed FBS, 0.00702 µM	78.8	85	71.4
RPMI 5 mM glucose + 10% dialyzed FBS, 0.0211 µM	87.9	86.9	86.8
RPMI 5 mM glucose + 10% dialyzed FBS, 0.0632 µM	97.9	100	96
RPMI 5 mM glucose + 10% dialyzed FBS, 0.19 µM	96.9	88.5	100
RPMI 5 mM glucose + 10% dialyzed FBS, 0.569 µM	91.2	91.3	102
RPMI 5 mM glucose + 10% dialyzed FBS, 1.71 µM	76.8	72.3	79
RPMI 5 mM glucose + 10% dialyzed FBS, 5.12 µM	66.8	59	56.5
RPMI 5 mM glucose + 10% dialyzed FBS, 15.4 µM	60.4	48.9	45.2
RPMI 5 mM glucose + 10% dialyzed FBS, 46.1 µM	33.8	35.9	32

AUC of viability dose-response curve
Conditions	NOMO1 [4]	P12-Ichikawa [6]	SEM cells [5]
HPLM + 10% dialyzed FBS	381	395	340
RPMI 5 mM glucose + 10% FBS	379	372	354
RPMI 5 mM glucose + 10% dialyzed FBS	380	371	370
